Data on two compounds can be found in patent US12240869B2, “Inhibitors of cyclin-dependent kinase 7 (CDK7)” (Syros Pharmaceuticals, Inc., priority 2018, dated 2025).

Structures are written as SMILES.

The test system of data set [1] is HR+ breast cancer cell line T47D (PIK3CA p.H1047R). The data set can be described thus: In vitro combination study, CellTiter-Glo viability, CalcuSyn. The data set is classed as cell-based. Particulars: 5 days.
In data set [2] the test system is ST390 (modeling pancreatic ductal adenocarcinoma (PDAC)). Description: Tumor growth inhibition in PDAC PDX model. The class given is in vivo. Particulars: 6 mg/kg QD PO, over ~28 days, dose well below the MTD.
Experimental: In the PDAC model, Compound 101 was orally administered to tumor-bearing NOD/SCID mice at 6 mg/kg QD. […] The % regression was calculated as: (Mean TV Compound 101 @ EOT)/(Mean TV Compound 101 @ Day 0)×100. The same calculations were used for end of study (day 42).
The subject of data set [3] is CRC cell line RKO (BRAF p.V600E mutant). Description: In vitro combination study, CellTiter-Glo viability, CalcuSyn. Particulars: 5 days. The class given is cell-based. The text has this:
(§1) Combination effect is reflected by shift in IC50 of Compound 101 with addition of carboplatin or oxaliplatin or increased antiproliferative effect with lower amounts of either single agent. This is visualized in the isobolograms of FIG. 5, where points below the diagonal line reflect synergy.

Data set [4] relates to SCLC cell line (NCI-H1048). The description is as above. The data set is classed as cell-based. Particulars: 5 days; median effect principle (Chou-Talalay).
Excerpt: as §1

Data set [5] deals with palbociclib-resistant ER+BC PDX (ST1799) model. Description: Tumor growth inhibition in palbociclib-resistant PDX model. Particulars: last day of 28-day dosing, Compound 101 6 mg/kg QD PO, fulvestrant 2.5 mg/kg weekly SC, palbociclib 50 mpk QD PO. The data set is classed as in vivo, mice. Here is the method:
(§2) Tumor growth inhibition was evaluated in estrogen receptor-positive breast cancer (ER+BC) PDX models selected in vivo for resistance to the CDK4/6 inhibitor palbociclib (ST1799, n=1) or resistance to both palbociclib and fulvestrant (ST941, n=1). Dosing was initiated when tumors were 100-200 mm^3.

For data set [6], the system named is PDX models BR5010 (TNBC), LU5178 (SCLC), OV15398 (HGSOC). Description: Tumor growth inhibition in TNBC, SCLC and HGSOC PDX models (Example 10). The class given is in vivo, NOD/SCID mice.
For data set [7], the system named is palbociclib and fulvestrant double-resistant ER+BC PDX model (ST941). Description: Tumor growth inhibition in palbociclib and fulvestrant double-resistant PDX model. The data set is classed as in vivo, mice. Particulars: fulvestrant 2.5 mg/kg weekly SC. Here is the method: as §2
For data set [8], the system named is 12 PDX models representing SCLC, TNBC and HGSOC. The data set can be described thus: TGI in 12 PDX models (Example 12). The class given is in vivo.
Experimental: Dosing was initiated when tumors were 150-300 mm^3. […] TGI was calculated on the last day of dosing using the formula: TGI=(Vc1−Vt1)/(Vc0−Vt0), where Vc1 and Vt1 are the mean volumes of control and treated groups at the time of tumor extraction, while Vc0 and Vt0 are the same groups at the start of dosing.
In data set [9] the test system is HR+ breast cancer cell line MCF7 (PIK3CA p.E545K). The data set can be described thus: In vitro combination study, CellTiter-Glo viability, CalcuSyn. Particulars: 5 days. The data set is classed as cell-based.
Data set [10] concerns CRC cell line SW480 (KRAS p.G12V mutant). The data set is described as above. The data set is classed as cell-based. To be noted: 5 days.

Consider `CC1(C)CC[C@H](Nc2ncc(C(F)(F)F)c(-c3c[nH]c4c(P(C)(C)=O)c(C#N)ccc34)n2)CN1` [Compound 101, (S)-7-(dimethylphosphoryl)-3-(2-((6,6-dimethylpiperidin-3-yl)amino)-5-(trifluoromethyl)pyrimidin-4-yl)-1H-indole-6-carbonitrile], for which the “combination effect with alpelisib” value in data set [1] and in data set [9] (PIK3CA p.E545K) was “significant synergy” in each case. Moreover, in data set [2], the TGI stood at 100%. Also, the “combination effect with oxaliplatin” value in [3] (median effect principle (Chou-Talalay)) is “showed synergy and was superior to either agent alone”. Moreover, the “combination effect with trametinib” value in [3] (BRAF p.V600E mutant CRC) and in data set [10] was “significant synergy” each time. For the same compound, in [4], the “combination effect with carboplatin” value is “showed synergy and was superior to either agent alone”. For the same compound, the “combination effect with gemcitabine” value in data set [4] is “showed synergy and was superior to either agent alone”. In addition, the “Tumor growth inhibition (TGI)” value in [5] is on record as 83%; in data set [7] (last day of 28-day dosing, Compound 101 6 mg/kg QD PO) it was 33%. The “transcriptional responses in xenograft tissue” value in [6] (after dosing) was “Dose-dependent transcriptional responses in xenograft tissue were observed within 4 hours of dosing and were sustained for 24 hours”. Also, the “TGI, in words” value in [6] (oral, 21 days, TNBC 10 mg/kg QD or 5 mg/kg BID, SCLC and HGSOC 3 mg/kg BID, followed 21 days after treatment) is “deep and sustained TGI, including regressions”. Further, the “tolerability / body weight loss” value in [8] (all once-daily doses tested, tumor-bearing mice) is listed as “well tolerated, with no evident body weight loss”. The “TGI of deep responses” value in data set [8] (subset of models (58%, 7/12), TGI or regression) is listed as more than 95%. In data set [8] (tumor-bearing mice), the MTD entry was “above 10 mg/kg once daily”. In addition, the “combination effect with capecitabine” value in data set [9] (HR+ MCF-7 cells) is “showed synergy and was superior to either agent alone”.
Take `C[C@]12CC[C@@H]3c4ccc(O)cc4C[C@@H](CCCCCCCCC[S+]([O-])CCCC(F)(F)C(F)(F)F)[C@H]3[C@@H]1CC[C@@H]2O` (some centres unmarked) [fulvestrant, reference compound]: in [7] (palbociclib 50 mpk QD PO), the “activity (tumor growth inhibition), in words” value is “no activity”.

The TGI is the reduction of tumour growth relative to the control group. Read a high TGI as much slowing of growth.
